In patent publication US20210045385A1, “PYRIDAZINONE-SUBSTITUTED KETOXIMES AS HERBICIDES” (FMC Corporation, priority 2018, published 2021):

Key:
Assay type in all cases: in vivo
[1] = test system: wheat (Triticum aestivum); assay: Test A postemergence, visual plant response rating
Source text: (§1) Seeds of plant species selected from barnyardgrass (Echinochloa crus-galli), kochia (Kochia scoparia), ragweed (common ragweed, Ambrosia elatior), Italian ryegrass (Lolium multiflorum), foxtail, giant (giant foxtail, Setaria faberii), foxtail, green (green foxtail, Setaria viridis), and pigweed (Amaranthus retroflexus) were planted into a blend of loam soil and sand and treated preemergence with a directed soil spray using test chemicals formulated in a non-phytotoxic solvent mixture which included a surfactant.
(§2) At the same time, plants selected from these weed species and also wheat (Triticum aestivum), corn (Zea mays), blackgrass (Alopecurus myosuroides), and galium (catchweed bedstraw, Galium aparine) were planted in pots containing the same blend of loam soil and sand and treated with postemergence applications of test chemicals formulated in the same manner. Plants ranged in height from 2 to 10 cm and were in the one- to two-leaf stage for the postemergence treatment. Treated plants and untreated controls were maintained in a greenhouse for approximately 10 days, after which time all treated plants were compared to untreated controls and visually evaluated for injury. Plant response ratings, summarized in Table A, are based on a 0 to 100 scale where 0 is no effect and 100 is complete control. A dash (-) response means no test result.

[2] = test system: foxtail, giant (giant foxtail, Setaria faberii); assay: Test A postemergence, visual plant response rating
Source text: as §1, §2

[3] = test system: galium (catchweed bedstraw, Galium aparine); assay: Test A postemergence, visual plant response rating
Source text: as §1, §2

[4] = test system: corn (Zea mays); assay: Test A postemergence, visual plant response rating
Source text: as §1, §2

[5] = test system: blackgrass (Alopecurus myosuroides); assay: Test A postemergence, visual plant response rating
Source text: as §1, §2

[6] = test system: Italian ryegrass (Lolium multiflorum); assay: Test A postemergence, visual plant response rating
Source text: as §1, §2

[7] = test system: ragweed (common ragweed, Ambrosia elatior); assay: Test A postemergence, visual plant response rating
Source text: as §1, §2

[8] = test system: pigweed (Amaranthus retroflexus); assay: Test A postemergence, visual plant response rating
Source text: as §1, §2

[9] = test system: kochia (Kochia scoparia); assay: Test A postemergence, visual plant response rating
Source text: as §1, §2

[10] = test system: barnyardgrass (Echinochloa crus-galli); assay: Test A postemergence, visual plant response rating
Source text: as §1, §2

[11] = test system: foxtail, giant (giant foxtail, Setaria faberii); assay: Test A preemergence, visual plant response rating; settings: for Foxtail, Giant plant response rating (0 to 100 scale): approx. 10 days
Procedure, shortened: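 Ratings 0–100 (100 = complete control), visual, vs untreated controls at ~10 days. Application pre- or postemergence; solvent mixture with surfactant; loam/sand medium.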

[12] = test system: Italian ryegrass (Lolium multiflorum); assay: Test A preemergence, visual plant response rating; settings: for Ryegrass, Italian plant response rating (0 to 100 scale): approx. 10 days
Procedure, shortened: (§3)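 Preemergence: seeds in loam/sand blend given directed soil spray of compound in non-phytotoxic solvent with surfactant. Postemergence: plants 2–10 cm, one- to two-leaf stage, sprayed with same formulation. Visual injury rated vs untreated controls after ~10 days in greenhouse, 0 (no effect) to 100 (complete control).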

[13] = test system: ragweed (common ragweed, Ambrosia elatior); assay: Test A preemergence, visual plant response rating; settings: for Ragweed plant response rating (0 to 100 scale): approx. 10 days
Procedure, shortened: as §3

[14] = test system: pigweed (Amaranthus retroflexus); assay: Test A preemergence, visual plant response rating; settings: for Pigweed plant response rating (0 to 100 scale): approx. 10 days
Procedure, shortened: as §3

[15] = test system: kochia (Kochia scoparia); assay: Test A preemergence, visual plant response rating; settings: for Kochia plant response rating (0 to 100 scale): approx. 10 days
Procedure, shortened: as §3

[16] = test system: barnyardgrass (Echinochloa crus-galli); assay: Test A preemergence, visual plant response rating; settings: for Barnyardgrass plant response rating (0 to 100 scale): approx. 10 days
Procedure, shortened: as §3

[17] = test system: ducksalad (Heteranhera limosa); assay: Test B flooded paddy test, visual plant response rating; settings: 250 g ai/ha, Flood, applied to paddy water, 2-leaf stage, evaluated after 13 to 15 days
Procedure: (§4) Plant species in the flooded paddy test selected from rice (Oryza sativa), sedge, umbrella (small-flower umbrella sedge, Cyperus difformis), ducksalad (Heteranhera limosa), and barnyardgrass (Echinochloa crus-galli) were grown to the 2-leaf stage for testing. At time of treatment, test pots were flooded to 3 cm above the soil surface treated by application of test compounds directly to the paddy water, and then maintained at that water depth for the duration of the test. Treated plants and controls were maintained in a greenhouse for 13 to 15 days, after which time all species were compared to controls and visually evaluated. […] A dash (-) response means no test result.

[18] = test system: sedge, umbrella (small-flower umbrella sedge, Cyperus difformis); assay: as above; settings: 250 g ai/ha, Flood, applied to paddy water, 2-leaf stage, evaluated after 13 to 15 days
Procedure: as §4

[19] = test system: rice (Oryza sativa); assay: as above; settings: 250 g ai/ha, Flood, applied to paddy water, 2-leaf stage, evaluated after 13 to 15 days
Procedure: as §4

[20] = test system: barnyardgrass (Echinochloa crus-galli); assay: as above; settings: 250 g ai/ha, Flood, applied to paddy water, 2-leaf stage, evaluated after 13 to 15 days
Procedure: as §4

[21] = 1000 g ai/ha Postemergence, approx. 10 days
[22] = 1000 g ai/ha, preemergence, 0 to 100 scale, 0 no effect, 100 complete control
[23] = 500 g ai/ha, postemergence, 0 is no effect, 100 is complete control
[24] = Postemergence, 125 g ai/ha, 0 to 100 scale (0 no effect, 100 complete control)

CCON=C(c1cccc(C)c1)c1c(O)c(C)nn(C)c1=O (mixture of isomers) [Compound 6]
50: Foxtail, Giant plant response rating (0 to 100 scale) [2, 21] | Ragweed plant response rating [13, 22]
20: Kochia plant response rating [15, 22]
30: Barnyardgrass plant response rating (0 to 100 scale) [10, 21] | Foxtail, Giant plant response rating [11, 22] | Barnyardgrass plant response rating [16, 22]
10: Blackgrass plant response rating (0 to 100 scale) [5, 21]
70: Ryegrass, Italian plant response rating (0 to 100 scale) [6, 21] | Pigweed plant response rating [14, 22]
90: Galium plant response rating (0 to 100 scale) [3, 21] | Ragweed plant response rating (0 to 100 scale) [7, 21]
0: Wheat plant response rating (0 to 100 scale) [1, 21] | Corn plant response rating (0 to 100 scale) [4, 21] | Plant response rating, Ducksalad (0 to 100 scale, 0 is no effect, 100 is complete control) [17] | Plant response rating, Sedge, Umbrella (0 to 100 scale, 0 is no effect, 100 is complete control) [18] | Plant response rating, Rice (0 to 100 scale, 0 is no effect, 100 is complete control) [19] | Plant response rating, Barnyardgrass (0 to 100 scale, 0 is no effect, 100 is complete control) [20]
80: Pigweed plant response rating (0 to 100 scale) [8, 21] | Kochia plant response rating (0 to 100 scale) [9, 21] | Ryegrass, Italian plant response rating [12, 22]

CON=C(c1cccc(Cl)c1)c1c(O)c(C)nn(C2CC2)c1=O (mixture of isomers) [Compound 33]
0: Wheat plant response rating [1, 24] | Foxtail, Giant plant response rating [2, 24] | Corn plant response rating (0 to 100 scale) [4, 23] | Corn plant response rating [4, 24] | Blackgrass plant response rating (0 to 100 scale) [5, 23] | Blackgrass plant response rating [5, 24] | Barnyardgrass plant response rating (0 to 100 scale) [10, 23] | Barnyardgrass plant response rating [10, 24] | Foxtail, Giant plant response rating (0 to 100 scale) ([11]; 125 g ai/ha Preemergence) | Foxtail, Giant plant response rating (0 to 100 scale) ([11]; 500 g ai/ha Preemergence) | Ragweed plant response rating (0 to 100 scale) ([13]; 125 g ai/ha Preemergence) | Pigweed plant response rating (0 to 100 scale) ([14]; 125 g ai/ha Preemergence) | Kochia plant response rating (0 to 100 scale) ([15]; 125 g ai/ha Preemergence) | Barnyardgrass plant response rating (0 to 100 scale) ([16]; 125 g ai/ha Preemergence) | Barnyardgrass plant response rating (0 to 100 scale) ([16]; 500 g ai/ha Preemergence) | Plant response rating, Ducksalad (0 to 100 scale, 0 is no effect, 100 is complete control) [17] | Plant response rating, Sedge, Umbrella (0 to 100 scale, 0 is no effect, 100 is complete control) [18] | Plant response rating, Rice (0 to 100 scale, 0 is no effect, 100 is complete control) [19] | Plant response rating, Barnyardgrass (0 to 100 scale, 0 is no effect, 100 is complete control) [20]
20: Wheat plant response rating (0 to 100 scale) [1, 23] | Kochia plant response rating [9, 24] | Ryegrass, Italian plant response rating (0 to 100 scale) ([12]; 125 g ai/ha Preemergence) | Ragweed plant response rating (0 to 100 scale) ([13]; 500 g ai/ha Preemergence)
10: Foxtail, Giant plant response rating (0 to 100 scale) [2, 23] | Ryegrass, Italian plant response rating [6, 24] | Ragweed plant response rating [7, 24] | Pigweed plant response rating [8, 24] | Kochia plant response rating (0 to 100 scale) ([15]; 500 g ai/ha Preemergence)
40: Galium plant response rating [3, 24] | Kochia plant response rating (0 to 100 scale) [9, 23]
30: Pigweed plant response rating (0 to 100 scale) [8, 23]
60: Ryegrass, Italian plant response rating (0 to 100 scale) [6, 23] | Ragweed plant response rating (0 to 100 scale) [7, 23] | Ryegrass, Italian plant response rating (0 to 100 scale) ([12]; 500 g ai/ha Preemergence)
70: Galium plant response rating (0 to 100 scale) [3, 23] | Pigweed plant response rating (0 to 100 scale) ([14]; 500 g ai/ha Preemergence)
